# Where “and” joins values, the source holds several entries; their conditions need not be identical. Identical values can stand only once. Toxic doses and inconclusive results are not listed.
# System: L1210 leukemia ip in BDF1 mice, survival T/C
# Assay: NCI In Vivo Anticancer Drug Screen. Data for tumor model L1210 Leukemia (intraperitoneal) in B6D2F1 (BDF1) mice
# Details: endpoint: mean survival time, higher = longer survival
# In short: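 Transplantable tumor model; survival measured in treated vs vehicle control mice. Value = treated/control.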
# [1] = dose: 50.0 mg/kg/injection, schedule: Q01DX009 (ip), vehicle: saline
# [2] = dose: 50.0 mg/kg/injection, schedule: Q04DX003 (ip), vehicle: saline
# [3] = dose: 100.0 mg/kg/injection, schedule: Q01DX009 (ip), vehicle: saline
# [4] = dose: 100.0 mg/kg/injection, schedule: Q04DX003 (ip), vehicle: saline
# [5] = dose: 200.0 mg/kg/injection, schedule: Q04DX003 (ip), vehicle: saline
# [6] = dose: 100.0 mg/kg/injection, schedule: Q01DX001 (ip), vehicle: carboxymethylcellulose (CMC)
# [7] = dose: 200.0 mg/kg/injection, schedule: Q01DX001 (ip), vehicle: carboxymethylcellulose (CMC)
# [8] = dose: 100.0 mg/kg/injection, schedule: Q04DX003 (ip), vehicle: Klucel (hydroxypropylcellulose) (HPC)
# [9] = dose: 200.0 mg/kg/injection, schedule: Q04DX003 (ip), vehicle: Klucel (hydroxypropylcellulose) (HPC)
# [10] = dose: 400.0 mg/kg/injection, schedule: Q04DX003 (ip), vehicle: Klucel (hydroxypropylcellulose) (HPC)
# [11] = dose: 100.0 mg/kg/injection, schedule: Q01DX009 (ip), vehicle: Klucel (hydroxypropylcellulose) (HPC)
# [12] = dose: 100.0 mg/kg/injection, schedule: Q04DX002 (ip), vehicle: Klucel (hydroxypropylcellulose) (HPC)
# [13] = dose: 200.0 mg/kg/injection, schedule: Q04DX002 (ip), vehicle: Klucel (hydroxypropylcellulose) (HPC)
# [14] = dose: 25.0 mg/kg/injection, schedule: Q01DX009 (ip), vehicle: saline
# [15] = dose: 100.0 mg/kg/injection, schedule: Q01DX001 (ip), vehicle: Klucel (hydroxypropylcellulose) (HPC)
# [16] = dose: 25.0 mg/kg/injection, schedule: Q04DX003 (ip), vehicle: Klucel (hydroxypropylcellulose) (HPC)
# [17] = dose: 50.0 mg/kg/injection, schedule: Q04DX003 (ip), vehicle: Klucel (hydroxypropylcellulose) (HPC)
# [18] = dose: 50.0 mg/kg/injection, schedule: Q01DX009 (ip), vehicle: saline with Tween-80
# [19] = dose: 100.0 mg/kg/injection, schedule: Q01DX009 (ip), vehicle: saline with Tween-80
# [20] = dose: 100.0 mg/kg/injection, schedule: Q04DX003 (ip), vehicle: saline with Tween-80
# [21] = dose: 200.0 mg/kg/injection, schedule: Q01DX009 (ip), vehicle: saline with Tween-80
# [22] = dose: 200.0 mg/kg/injection, schedule: Q04DX003 (ip), vehicle: saline with Tween-80
# [23] = dose: 400.0 mg/kg/injection, schedule: Q04DX003 (ip), vehicle: saline with Tween-80
compound,measurement,setting,value
CS(=O)(=O)OC[C@H](OS(=O)(=O)O)[C@H](COS(C)(=O)=O)OS(=O)(=O)O,T/C,[1],106 % of control
same,T/C,[2],89 % of control
same,T/C,"dose: 100.0 mg/kg/injection, schedule: Q01DX001 (ip), vehicle: saline",89 % of control
same,T/C,[3],95 % of control
same,T/C,[4],96 % of control
same,T/C,"dose: 200.0 mg/kg/injection, schedule: Q01DX001 (ip), vehicle: saline",95 % of control
same,T/C,"dose: 200.0 mg/kg/injection, schedule: Q01DX009 (ip), vehicle: saline",98 % of control
same,T/C,[5],91 % of control
CN(CCO)/N=N/c1nc[nH]c1C(N)=O,T/C,[6],107 % of control
same,T/C,[7],113 % of control
same,T/C,"dose: 400.0 mg/kg/injection, schedule: Q01DX001 (ip), vehicle: carboxymethylcellulose (CMC)",107 % of control
same,T/C,"dose: 400.0 mg/kg/injection, schedule: Q01DX009 (ip), vehicle: carboxymethylcellulose (CMC)",169 % of control
same,T/C,"dose: 800.0 mg/kg/injection, schedule: Q01DX009 (ip), vehicle: carboxymethylcellulose (CMC)",92 % of control
OC(/C=C/c1ccccc1)(c1ccccc1)c1ccccc1,T/C,[8],94 % of control
same,T/C,[9],93 % of control
same,T/C,[10],96 % of control
CCC(=O)Oc1c(CC=C(C)C)c(OC(=O)CC)c2ccccc2c1OC(=O)CC,T/C,[11],93 % of control
same,T/C,[8],90 % of control
same,T/C,"dose: 200.0 mg/kg/injection, schedule: Q01DX009 (ip), vehicle: Klucel (hydroxypropylcellulose) (HPC)",93 % of control
same,T/C,[9],94 % of control
same,T/C,"dose: 400.0 mg/kg/injection, schedule: Q01DX009 (ip), vehicle: Klucel (hydroxypropylcellulose) (HPC)",88 % of control
same,T/C,[10],96 % of control
Cc1ccc(S(=O)(=O)OCC2C(COS(=O)(=O)c3ccc(C)cc3)C3C4C5C2C2C3C4C52)cc1 (stereo not given),T/C,[12],98 % of control
same,T/C,[13],90 % of control
same,T/C,"dose: 400.0 mg/kg/injection, schedule: Q04DX002 (ip), vehicle: Klucel (hydroxypropylcellulose) (HPC)",94 % of control
NNc1ccc2cccc(O)c2n1,T/C,[6],90 % of control
same,T/C,[7],93 % of control
C=C1CC[N+]2(CCCCCC)CCCC12 (stereo not given),T/C,"dose: 6.25 mg/kg/injection, schedule: Q01DX009 (ip), vehicle: saline",97 % of control
same,T/C,"dose: 12.5 mg/kg/injection, schedule: Q01DX009 (ip), vehicle: saline",91 % of control
same,T/C,[14],103 % of control
C#CC[N+](C)(C)CC#C,T/C,[2],102 % of control
same,T/C,[4],94 % of control
same,T/C,[5],93 % of control
Clc1nc2ncn3cnnc3c2[nH]1,T/C,[15],108 % of control
same,T/C,"dose: 200.0 mg/kg/injection, schedule: Q01DX001 (ip), vehicle: Klucel (hydroxypropylcellulose) (HPC)",98 % of control
same,T/C,"dose: 400.0 mg/kg/injection, schedule: Q01DX001 (ip), vehicle: Klucel (hydroxypropylcellulose) (HPC)",93 % of control
Cc1ccc(S(=O)(=O)OCC2OCOC2C2OCOC2CI)cc1 (stereo not given),T/C,"dose: 100.0 mg/kg/injection, schedule: Q01DX001 (ip), vehicle: saline with Tween-80",101 % of control
same,T/C,"dose: 200.0 mg/kg/injection, schedule: Q01DX001 (ip), vehicle: saline with Tween-80",101 % of control
same,T/C,"dose: 400.0 mg/kg/injection, schedule: Q01DX001 (ip), vehicle: saline with Tween-80",93 % of control
Oc1cccnc1CN1CCCCC1,T/C,[14],100 % of control
same,T/C,[1],91 % of control
same,T/C,[2],97 % of control
same,T/C,[3],96 % of control
same,T/C,[4],97 % of control
Cc1nccn1CC(=O)c1ccccc1,T/C,"dose: 25.0 mg/kg/injection, schedule: Q01DX001 (ip), vehicle: Klucel (hydroxypropylcellulose) (HPC)",102 % of control
same,T/C,"dose: 25.0 mg/kg/injection, schedule: Q01DX009 (ip), vehicle: Klucel (hydroxypropylcellulose) (HPC)",91 % of control
same,T/C,[16],100 % of control
same,T/C,"dose: 50.0 mg/kg/injection, schedule: Q01DX001 (ip), vehicle: Klucel (hydroxypropylcellulose) (HPC)",113 % of control
same,T/C,"dose: 50.0 mg/kg/injection, schedule: Q01DX009 (ip), vehicle: Klucel (hydroxypropylcellulose) (HPC)",94 % of control and 108 % of control
same,T/C,[17],103 % of control
same,T/C,[15],95 % of control
same,T/C,[11],97 % of control
same,T/C,[12],96 % of control and 106 % of control
same,T/C,[8],94 % of control
same,T/C,[13],101 % of control
CCN(CC)Cc1cc(Nc2nc(/C=C/c3ccc(Cl)cc3)nc(Cl)c2-c2ccc(Cl)cc2)ccc1O,T/C,"dose: 12.0 mg/kg/injection, schedule: Q01DX001 (ip), vehicle: saline",100 % of control
same,T/C,"dose: 12.5 mg/kg/injection, schedule: Q04DX003 (ip), vehicle: Klucel (hydroxypropylcellulose) (HPC)",95 % of control
same,T/C,"dose: 25.0 mg/kg/injection, schedule: Q01DX001 (ip), vehicle: saline",107 % of control
same,T/C,[16],98 % of control
same,T/C,"dose: 50.0 mg/kg/injection, schedule: Q01DX001 (ip), vehicle: saline",100 % of control
same,T/C,[17],97 % of control
CCCC(CCC)NC(CC)COC(=O)c1ccc(N)cc1 (stereo not given),T/C,"dose: 75.0 mg/kg/injection, schedule: Q01DX001 (ip), vehicle: other",97 % of control
NC(=O)c1cccn1-c1ccc2ncccc2c1,T/C,"dose: 25.0 mg/kg/injection, schedule: Q04DX002 (ip), vehicle: Klucel (hydroxypropylcellulose) (HPC)",89 % of control
same,T/C,"dose: 50.0 mg/kg/injection, schedule: Q04DX002 (ip), vehicle: Klucel (hydroxypropylcellulose) (HPC)",92 % of control
same,T/C,[12],86 % of control
COCNC(=S)N/N=C/c1ccccn1,T/C,"dose: 12.5 mg/kg/injection, schedule: Q01DX009 (ip), vehicle: saline with Tween-80",124 % of control
same,T/C,[18],124 % of control
O=C(O)c1ccccc1C(=O)NNC(=O)c1ccccc1C(=O)O,T/C,[19],97 % of control
same,T/C,[20],97 % of control
same,T/C,[21],94 % of control
same,T/C,[22],108 % of control
same,T/C,"dose: 400.0 mg/kg/injection, schedule: Q01DX009 (ip), vehicle: saline with Tween-80",94 % of control
same,T/C,[23],92 % of control
Cc1c(O)ccc2c1CCCC2,T/C,[16],103 % of control
same,T/C,[17],97 % of control
same,T/C,"dose: 100.0 mg/kg/injection, schedule: Q01DX009 (ip), vehicle: saline sonified",92 % of control
same,T/C,[8],92 % of control and 117 % of control
same,T/C,"dose: 200.0 mg/kg/injection, schedule: Q01DX009 (ip), vehicle: saline sonified",88 % of control
same,T/C,[9],107 % of control
same,T/C,"dose: 400.0 mg/kg/injection, schedule: Q01DX009 (ip), vehicle: saline sonified",94 % of control
same,T/C,[10],103 % of control
CCCCNC(=O)Nc1ccc(N(C)C)cc1,T/C,[18],95 % of control
same,T/C,[19],92 % of control
same,T/C,[20],102 % of control
same,T/C,[21],90 % of control
same,T/C,[22],100 % of control
same,T/C,[23],109 % of control
CCCCCCCCCCCCSCCSCCSCCCCCCCCCCCC,T/C,[8],93 % of control
same,T/C,[9],92 % of control
same,T/C,[10],98 % of control
C=CC1(O)CC2CCC1C2 (stereo not given),T/C,[19],101 % of control
same,T/C,[21],96 % of control
CCOC(=O)Oc1c(OC)cc(C(=O)O[C@@H]2C[C@@H]3CN4CCc5c([nH]c6cc(OC)ccc56)[C@H]4C[C@@H]3[C@H](C(=O)OC)[C@H]2OC)cc1OC,T/C,[16],101 % of control
same,T/C,[17],106 % of control
same,T/C,[8],95 % of control
same,T/C,[9],98 % of control
Oc1ccc2ccccc2c1N=Nc1cc[c]([Hg][Cl])cc1,T/C,"dose: 5.0 mg/kg/injection, schedule: Q01DX001 (ip), vehicle: saline",91 % of control
same,T/C,"dose: 10.0 mg/kg/injection, schedule: Q01DX001 (ip), vehicle: saline",107 % of control
same,T/C,"dose: 20.0 mg/kg/injection, schedule: Q01DX001 (ip), vehicle: saline",96 % of control
same,T/C,"dose: 40.0 mg/kg/injection, schedule: Q01DX001 (ip), vehicle: saline",100 % of control
